Patent US20140154389A1, “PRODUCTION OF CHEESE WITH S. THERMOPHILUS” (DuPont Nutrition BioSciences ApS, priority 2011, published 2014)

System: urease enzyme of ur(+) S. thermophilus
Experiment: Floating curd experiment in test tubes (Example 3)
Parameters: species or system Streptococcus thermophilus
Details: milk fermented at 35° C. to pH 4.65, sample heated at about 66° C. for 2 x 10 minutes; flurofamide added to the blend of Lactococci and ur(+) S. thermophilus
Experimental: Four experiments were conducted in which milk was treated with various bacteria. In experiment 1, only Lactococci bacteria were added. In experiment 2, a blend of Lactococci bacteria and ur(+) S. thermophilus bacteria were added. In experiment 3, a blend of Lactococci bacteria, ur(+) S. thermophilus bacteria, and the urease inhibitor flurofamide were added. In experiment 4, only ur(+) S. thermophilus bacteria were added.
In each experiment, the milk was fermented with the bacteria at 35° C. until the cheese reached a pH of 4.65. A sample of the cheese was placed into a test tube, which was heated at about 66° C. for about 10 minutes. After 10 minutes of heating, a small pipette or thin wire was used to agitate the sample. The samples were held at about 66° C. for another ten minutes, at which time the photograph of the test tubes depicted in FIG. 3, was taken.
Test tube 4 is a positive control that contains ur(+) S. thermophilus, which has urease enzymes that can hydrolyze urea in milk.

- floating curd in test tube: no floating curd
Compound: NP(N)(=O)NC(=O)c1ccc(F)cc1 [flurofamide]
